Experimental findings from patent publication US8349827B2, “Substituted dipyrido-pyrimido-diazepine and benzo-pyrido-pyrimido compounds” (ArQule, Inc., priority 2009, dated 2013) are described below.

The test system of one assay is KATO III. The assay is described as follows: MTS assay, KATO III cells. Conditions: Homo sapiens, 72 hours. In kind it is cell-based. The protocol:
(§1) Cells were maintained at 37° C., 5% CO2 in DMEM media supplemented with 1% fetal bovine serum, penicillin/streptomycin and fungizone (Invitrogen). Cells were seeded into 96-well tissue culture plates at 3000 per well and cultured at 37° C. for 18 hours. Test compounds were dissolved and diluted to 300× in DMSO then diluted 1:40 in DMEM. Cells were incubated with test compounds for 72 hours followed by incubation with tetrazolium compound (3-(4,5-dimethylthiazol-2-yl)-5-(3-carboxymethoxyphenyl)-2-(4-sulfophenyl)-2H-tetrazolium, inner salt; MTS) and the electron coupling reagent, phenazine methosulfate (PMS) for 4 hours. […] The ability of compounds to inhibit cell growth in this assay is correlated with the reduction of dehydrogenase enzyme activity found in metabolically active cells. The measurement of the absorbance of the formazan was assessed using an ENVISION™ (Perkin Elmer) microplate reader at 492 nm. The calculated IC50 value is the concentration of the test compound that causes a 50% decrease in the absorbance.

The subject of the next assay is NCI-H1299. The assay is described as follows: MTS assay, NCI-H1299 cells. To be noted: Homo sapiens, 72 hours. Type of assay: cell-based. The procedure:
as §1

The next assay deals with ABL T315I (Homo sapiens, UniProt P00519, T315I). Nature of the assay: ABL Kinase Activity Assay (Elisa), ABL T315I. Type of assay: biochemical. To be noted: ATP 100 μM, read-out: Abl(T315I) Enzymetic assay (Elisa) % inhibition. The procedure: (§2) ABL Kinase Activity Assay
(§3) The disclosed compounds were assayed for their ability to inhibit the activity of ABL kinase. Nunc Maxisorb plates were coated with streptavidin by overnight incubation with 100 μL per well of 1 μg/ml streptavidin in DPBS. Prior to the experiment, the plates were washed with TBST (3×200 μL) and blocked for at least 3 hours by adding 150 μL of 5% BSA/TBST. The plates were washed with TBST (3×200 μL/well) and left dry immediately before the capture step.
(§4) The disclosed test compounds and controls (Gleevec) were prepared using the following assay buffer@10× desired final concentration (50 mM Tris pH 7.0, 0.02 mg/ml BSA, 10 mM MgCl2, 0.1 mM Na3VO4, 1 mM EGTA, 0.01% NP-40, 1 mM DTT in 10% glycerol/water). In a reaction plate, 5 μl test article (or control) and 30 μl ABL or ABL T315I (0.089 nM final concentration, in the above buffer) were added rapidly. The plate was incubated for 20 minutes. To the reaction plate was added ATP (100 μM final concentration) and AblTide (128 nM final concentration) in a volume of 15 μl. The plate was incubated at room temperature for one hour.
(§5) From the reaction plate, 40 μl was transferred to the streptavidin coated plate. The capture plate was incubated at room temperature for 30 minutes, then washed 3× with TBST. To the capture plate was added 100 μL/well of cell signaling anti-phospho tyrosine at a dilution of 1:3000 in 2% BSA/TBST. The plate was incubated for two hours at room temperature then washed 3× with TBST. To the capture plate was added 100 μL/well of alkaline phosphatase tagged goat anti mouse antibody at a dilution of 1:4000 in 2% BSA/TBST. The plate was incubated for one hour at room temperature then washed 3× with TBST.
(§6) The fluorescent readout was initiated by the addition of 100 μl/well of Attophos reagent (6 mg/10 mL). The reading was done on the Perkin Elmer Envision system.

The next assay has as its target ABL (Homo sapiens, UniProt P00519). Nature of the assay: ABL Kinase Activity Assay (Elisa), ABL. In kind it is biochemical. To be noted: ATP 100 μM, read-out: Abl Enzymetic assay (Elisa) % inhibition. The procedure:
as §2, §3, §4, §5, §6

A further assay has as its system DLD-1. The assay is described as follows: MTS assay, DLD-1 cells. Type of assay: cell-based. To be noted: Homo sapiens, 72 hours. The procedure: as §1
A further assay deals with MDA-MB-231. Nature of the assay: MTS assay, MDA-MB-231 cells. In kind it is cell-based. Conditions: Homo sapiens, 72 hours. The protocol:
as §1

The subject of another assay is PACA-2. The assay is described as follows: MTS assay, PACA-2 cells. Type of assay: cell-based. To be noted: 72 hours. The protocol:
as §1

Regarding `Cc1cnc(CNc2ncc3c(n2)-c2cccnc2Nc2cnccc2-3)cn1` [Example 6, N-[(5-methylpyrazin-2-yl)methyl]-9H-dipyrido[2,3-b:4′,3′-f]pyrimido[4,5-d]azepin-2-amine], the inhibition at 10 µM in the assay on KATO III, in the assay with NCI-H1299, at ABL T315I and at ABL was under 50% in each case.
`Fc1ccc(CNc2ncc3c(n2)-c2cccnc2Nc2cnccc2-3)cc1Cl` [Example 9, N-(3-chloro-4-fluorobenzyl)-9H-dipyrido[2,3-b:4′,3′-f]pyrimido[4,5-d]azepin-2-amine]: the inhibition at 10 µM was 50 to 79% in the assay on DLD-1; 50 to 79% with KATO III; under 50% with MDA-MB-231; under 50% with NCI-H1299; under 50% with PACA-2; 80 to 100% at ABL T315I. The inhibition at 10 µM at ABL lay in the range of 80 to 100%.
On to `c1ccc(CNc2ncc3c(n2)-c2cccnc2Nc2cnccc2-3)cc1` [Example 12, N-benzyl-9H-dipyrido[2,3-b:4′,3′-f]pyrimido[4,5-d]azepin-2-amine], for which the inhibition at 10 µM was under 50% in the assay with DLD-1; under 50% with KATO III; under 50% in the assay on MDA-MB-231; under 50% in the assay on NCI-H1299; 80 to 100% on ABL T315I; 80 to 100% on ABL.
Regarding `Cc1ccc(CCNc2ncc3c(n2)-c2cccnc2Nc2cnccc2-3)cc1` [Example 16, N-[2-(4-methylphenyl)ethyl]-9H-dipyrido[2,3-b:4′,3′-f]pyrimido[4,5-d]azepin-2-amine], the inhibition at 10 µM in the assay with DLD-1 is under 50%; with KATO III it was 50 to 79%; in the assay with MDA-MB-231, under 50%; in the assay on NCI-H1299, under 50%; with PACA-2, under 50%; at ABL T315I it was 80 to 100%. The inhibition at 10 µM at ABL is 80 to 100%.
As to `Fc1ccc(CCNc2ncc3c(n2)-c2cccnc2Nc2cnccc2-3)cc1` [Example 19, N-[2-(4-fluorophenyl)ethyl]-9H-dipyrido[2,3-b:4′,3′-f]pyrimido[4,5-d]azepin-2-amine], the inhibition at 10 µM in the assay on DLD-1 was under 50%; in the assay with KATO III, under 50%; in the assay with MDA-MB-231, under 50%; in the assay with NCI-H1299 it was under 50%; at ABL T315I, 80 to 100%; at ABL, 80 to 100%.
For `Fc1ccccc1CNc1ncc2c(n1)-c1cccnc1Nc1cnccc1-2` [Example 20, N-(2-fluorobenzyl)-9H-dipyrido[2,3-b:4′,3′-f]pyrimido[4,5-d]azepin-2-amine], the inhibition at 10 µM was under 50% in the assay on DLD-1; under 50% in the assay on KATO III; under 50% in the assay on MDA-MB-231; under 50% in the assay on NCI-H1299; under 50% in the assay with PACA-2; 80 to 100% at ABL T315I. Besides, at ABL, the inhibition at 10 µM was 80 to 100%.
As to `c1ccc(CCNc2ncc3c(n2)-c2cccnc2Nc2cnccc2-3)cc1` [Example 28, N-(2-phenylethyl)-9H-dipyrido[2,3-b:4′,3′-f]pyrimido[4,5-d]azepin-2-amine], the inhibition at 10 µM was under 50% in the assay with DLD-1; 50 to 79% in the assay on KATO III; under 50% in the assay with MDA-MB-231; 80 to 100% on ABL T315I; 80 to 100% at ABL.
With `Clc1cccc(CCNc2ncc3c(n2)-c2cccnc2Nc2cnccc2-3)c1` [Example 29, N-[2-(3-chlorophenyl)ethyl]-9H-dipyrido[2,3-b:4′,3′-f]pyrimido[4,5-d]azepin-2-amine], the inhibition at 10 µM was under 50% in the assay with DLD-1; 80 to 100% in the assay with KATO III; under 50% in the assay on MDA-MB-231; under 50% in the assay on PACA-2; 80 to 100% at ABL T315I; 80 to 100% on ABL.
With `FC(F)(F)c1cccc(CNc2ncc3c(n2)-c2cccnc2Nc2cnccc2-3)c1` [Example 30, N-[3-(trifluoromethyl)benzyl]-9H-dipyrido[2,3-b:4′,3′-f]pyrimido[4,5-d]azepin-2-amine], the inhibition at 10 µM in the assay on DLD-1 is 50 to 79%; in the assay with KATO III, 80 to 100%; in the assay on NCI-H1299, under 50%; in the assay on PACA-2, under 50%; on ABL T315I, 80 to 100%; on ABL, 80 to 100%.
Turning to `Clc1ccc(CCNc2ncc3c(n2)-c2cccnc2Nc2cnccc2-3)cc1` [Example 31, N-[2-(4-chlorophenyl)ethyl]-9H-dipyrido[2,3-b:4′,3′-f]pyrimido[4,5-d]azepin-2-amine], the inhibition at 10 µM in the assay on DLD-1 was 50 to 79%; in the assay with KATO III it was 80 to 100%; in the assay on NCI-H1299, under 50%; with PACA-2, under 50%; at ABL T315I, 80 to 100%; at ABL, 80 to 100%.
Turning to `COc1cccc(CNc2ncc3c(n2)-c2cccnc2Nc2cnccc2-3)c1` [Example 32, N-(3-methoxybenzyl)-9H-dipyrido[2,3-b:4′,3′-f]pyrimido[4,5-d]azepin-2-amine], the inhibition at 10 µM in the assay with DLD-1 was 50 to 79%; in the assay on KATO III, under 50%; in the assay with MDA-MB-231, under 50%; in the assay on NCI-H1299, 50 to 79%; with PACA-2 it was under 50%; at ABL T315I, 80 to 100%. The inhibition at 10 µM on ABL lay within 80 to 100%.
In the case of `COc1cc(CNc2ncc3c(n2)-c2cccnc2Nc2cnccc2-3)cc(OC)c1` [Example 36, N-(3,5-dimethoxybenzyl)-9H-dipyrido[2,3-b:4′,3′-f]pyrimido[4,5-d]azepin-2-amine], the inhibition at 10 µM in the assay with DLD-1 was under 50%; in the assay on KATO III, under 50%; in the assay on NCI-H1299 it was under 50%; in the assay on PACA-2, under 50%; at ABL T315I, 80 to 100%; at ABL it was 50 to 79%.
For the molecule `c1cnc2c(c1)-c1nc(NCCCN3CCCC3)ncc1-c1ccncc1N2` [Example 37, N-(3-pyrrolidin-1-ylpropyl)-9H-dipyrido[2,3-b:4′,3′-f]pyrimido[4,5-d]azepin-2-amine], the inhibition at 10 µM in the assay with MDA-MB-231 was under 50%; with NCI-H1299, under 50%; with PACA-2, under 50%; at ABL, 50 to 79%.
For `Fc1ccccc1CCNc1ncc2c(n1)-c1cccnc1Nc1cnccc1-2` [Example 43, N-[2-(2-fluorophenyl)ethyl]-9H-dipyrido[2,3-b:4′,3′-f]pyrimido[4,5-d]azepin-2-amine], the inhibition at 10 µM in the assay with DLD-1 was under 50%; in the assay on KATO III, 50 to 79%; in the assay on NCI-H1299 it was under 50%; with PACA-2, under 50%; on ABL T315I it was 80 to 100%; at ABL, 80 to 100%.
Regarding `CCN(CC)CCCNc1ncc2c(n1)-c1cccnc1Nc1cnccc1-2` [Example 44, N′-9H-dipyrido[2,3-b:4′,3′-f]pyrimido[4,5-d]azepin-2-yl-N,N-diethylpropane-1,3-diamine], the inhibition at 10 µM is under 50% with DLD-1; 80 to 100% in the assay on KATO III; under 50% in the assay with MDA-MB-231; under 50% in the assay on NCI-H1299; under 50% in the assay on PACA-2; under 50% on ABL.
Take `OCCc1cccc(Nc2ncc3c(n2)-c2cccnc2Nc2ccccc2-3)c1` [Example 67, 2-[3-(9H-pyrido[2,3-b]pyrimido[4,5-d][1]benzazepin-2-ylamino)phenyl]ethanol]: the inhibition at 10 µM in the assay on DLD-1 was under 50%; in the assay with KATO III, 50 to 79%; with MDA-MB-231 it was under 50%; with NCI-H1299, 50 to 79%; in the assay on PACA-2 it was 80 to 100%.
